Holding throughout (assay type): cell-based, human
One assay concerns fra-1. As to the kind of experiment: Real Time RT-PCR in SW480 cells, fra-1. The following applies: 25 μM; for ΔCT fra-1: relative to β-actin. Here is the method: (§1) The RNeasy Midi Kit (Qiagen) was used for RNA extraction and Real Time RT-PCR was performed according to the protocol provided with the SYBR Green PCR Master Mix Kit (Perkin Elmer Biosystems, Shelton, Conn.). The primers used for cyclin D1, axin2, hnkd, c-myc, c-jun, and fra-1 amplifications were: cyclin D1 forward primer:5′-[…]-CCTGCTG-3′ (SEQ ID NO: 32) reverse primer: 5′-[…]-3′ (SEQ ID NO: 33) leading to a product size of approximately 300 bp; axin2 forward primer: 5′-[…] GGAAA-CT-3′ (SEQ ID NO: 34) and reverse primer: 5′-[…]-GAGA-3′ (SEQ ID NO: 35); hnkd forward primer: 5′-[…] TTGCGT-3′ (SEQ ID NO: 36) and the reverse primer: 5′-[…] ACGT-3′ (SEQ ID NO: 37); c-myc forward primer: 5′-GAA-[…] CTGC-3′ (SEQ ID NO: 38) and reverse primer: 5′-[…]-G-3′ (SEQ ID NO: 39); c-jun forward primer: 5′-[…]-3′ (SEQ ID NO: 40) and reverse primer: 5′-[…]-3′ (SEQ ID NO: 41); fra-1 forward primer: 5′-ACC-[…]-[…]-3′ (SEQ ID NO: 42) and reverse primer: 5′-[…]-TT-3′ (SEQ ID NO: 43). β-actin was used for normalization. […]
(§2) 1 μg of mRNA, for each time point, was subjected to Real Time RT-PCR. Expression level of endogenous cyclin D1, c-myc, fibronectin, hnkd, axin2, c-jun, and BMP-4 were measured relative to β-actin. Quantitation of The ΔCycle of Threshold (CT) values was determined by subtracting the average values of each set by the corresponding average values obtained for β-actin. […]
(§3) The cyclin D1 gene is inappropriately expressed in many different tumor types, and is known to be a direct target of the Wnt/β-catenin pathway (Shtutman et al., “The cyclin D1 gene is a target of the beta-catenin/LEF-1 pathway,” Proc. Natl. Acad. Sci. USA 96:5522-27 (1999); Tetsu et al., “Beta-catenin regulates expression of cyclin D1 in colon carcinoma cells,” Nature 398:422-26 (1999)). […] Expression level of endogenous cyclin D1, c-myc, fibronectin, hnkd, axin2, c-jun, and BMP-4 were measured relative to β-actin. Quantitation of The ΔCycle of Threshold (CT) values was determined by subtracting the average values of each set by the corresponding average values obtained for β-actin. […]
A general note: Real-time PCR tracks product formation cycle by cycle.

Another assay relates to c-myc. Description: Real Time RT-PCR in SW480 cells, c-myc. The following applies: 25 μM; for ΔCT c-myc: relative to β-actin. As for the experimental part:
as §1, §2, §3

In a further assay the test system is cyclin D1. As to the kind of experiment: Western blot of Cyclin D1 in SW480 whole cell lysates. The following applies: SW480 cells, 25 μM, beginning at 4 hours, increasing at 24 hours. As for the experimental part: FIG. 5. COMPOUND 1 inhibits the expression of cyclin D1. • A. Cyclin D1 levels are decreased with COMPOUND 1 treatment. Western blot analysis was performed on 25 μg of SW480 whole cell lysates treated for 4, 8, or 24 hours with either 25 μM of COMPOUND 1 or control (0.5% DMSO). Immunoblotting was performed using anti-Cyclin D1 antibodies (Santa Cruz Biotechnology Inc.). • B. In vivo occupancy of cyclin D1 and c-myc promoters by CBP and p300. […] ChIP assays were performed on promoter of c-myc from SW480 cells which was treated for 8 hours with COMPOUND 1 (25 μM) or control (0.5% DMSO). CBP (AC-26, a generous gift from Dr. David Livingston, Harvard University, Boston, Mass.) or p300 (C-20, Santa Cruz Biotechnology Inc.) specific antibodies were used to evaluate the promoter occupancy by CBP or p300 in presence of COMPOUND 1 or control (DMSO) treatment.
Immune complexes, from above, were separated on SDS-PAGE followed by transfer to immobilon-P membranes (PVDF) from (Millipore, Bedford, Mass.). […] Immunoblots were analyzed using an ECL detection kit (Amersham Pharmacia Biotech).
The β-actin gene was used to normalize the data. The ΔCycle of Threshold (CT) values were determined by subtracting the average values of each set from the corresponding average values obtained for the β-actin gene. […] Cyclin D1 protein levels in cells were also evaluated. […]

Each structure is given as a SMILES string.

With `O=C1C(Cc2ccc(O)cc2)N2C(=O)CCN(C(=O)NCc3ccccc3)C2CN1Cc1cccc2ccccc12` (stereo not shown) [COMPOUND 1], the “mRNA fra-1 (direction)” value in the assay with fra-1 is “↑”. The “ΔCT fra-1” value with fra-1 (4 hours) was −1.0; in the assay with fra-1 (8 hours) it was −1.4. The “mRNA c-myc (direction)” value in the assay with c-myc is listed as “↑”. For the same molecule, the ΔCT c-myc in the assay on c-myc (4 hours) is listed as −0.9; in the assay on c-myc (8 hours), −2.4. Also, in the assay on cyclin D1, the “Level of Cyclin D1 protein” value is given as “clear reduction”.

The values are drawn from patent US7531320B2, “Modulation of β-catenin/TCF-activated transcription” (priority 2003, dated 2009).
